According to patent publication US20180045744A1, “N[…] DRUG CONCENTRATIONS IN ORAL FLUIDS AND TESTING FOR POTENTIAL NON-[…] DRUG TREATMENT REGIMEN” (Ameritox, LLC, priority 2015, published 2018):

Assay: Oral fluid testing: concentration of the primary metabolite (parent drug) in oral fluid of patients
Type: in vivo, human
Procedure: In some embodiments, the amount of a drug in a subject is determined by analyzing a fluid of the subject. The term “fluid” as used herein refers to oral fluid and any liquid or pseudo-liquid obtained from the oral cavity of the subject. Non-limiting examples include saliva, mucus, and the like. In an embodiment, the fluid is oral fluid.
Determining the amount of a drug in oral fluid of the subject may be accomplished by use of any method known to those skilled in the art. Non-limiting examples for determining the amount of a drug in fluid of a subject include fluorescence polarization immunoassay (“FPIA,” Abbott Diagnostics), mass spectrometry (MS), gas chromatography-mass spectrometry (GC-MS-MS), liquid chromatography-mass spectrometry (LC-MS-MS), and the like. In one embodiment, LC-MS-MS methods known to those skilled in the art are used to determine a raw level, amount or concentration of a drug in oral fluid of the subject. In one embodiment, a raw level or concentration of a drug in oral fluid of a subject is measured and reported as a ratio, percent, or in relationship to the amount of fluid. The amount of fluid may be expressed as a unit volume, for example, in L, mL, μL, pL, ounce, etc. In one embodiment, the raw amount of a drug in oral fluid of a subject may be expressed as an absolute level or value, for example, in g, mg, pg, ng, pg, etc.
(§1) The results (drug concentration of the primary metabolite), demographic information (gender, weight, height, and age), and the prescribed dosage of hydrocodone for fifty randomly selected patients—not included in the patient population used to design the models—were used to assess the validity and robustness of the models.
as §1, with “oxycodone” for “hydrocodone”

Structure (SMILES)	concentration of the primary metabolite (parent drug) in the oral fluid (Example 3: subject, 254 lbs, 71 inches, 90 mg daily dose of oxycodone) [ng/mL]	concentration of the primary metabolite (parent drug) in the oral fluid (Example 4: subject, 113 lbs, 64 inches, 60 mg daily dose) [ng/mL]	concentration of the primary metabolite (parent drug) in oral fluid (Example 1: subject, 180 lbs, 65 inches, 30 mg daily dose of hydrocodone) [ng/mL]	concentration of the primary metabolite (parent drug) in the oral fluid (Example 2: subject, 225 lbs, 69 inches, 40 mg daily dose of hydrocodone) [ng/m I]
COc1ccc2c3c1O[C@H]1C(=O)CC[C@@]4(O)[C@@H](C2)N(C)CC[C@]314 [Oxycodone, oxycodone]	429	50	–	–
COc1ccc2c3c1O[C@H]1C(=O)CC[C@H]4[C@@H](C2)N(C)CC[C@]314 [Hydrocodone, hydrocodone]	–	–	34	101
